Assay [1] is classed as binding. The note with it: hydroxyapatite nanoparticles in PBS, single stain, FIG. 1. On the procedure:
Samples were analyzed using the Apogee A50 Nanoscale Flow Cytometer.
An isotype negative control was prepared for each Alendronate compound. […] (AL-Cy5) was Notdronate-Cy5 (NT-Cy5).

The conditions of assay [2]: single stain.

Where two headings read alike, the source gives them in different places.

As for Sulfo-Cy5 alendronate [AL-Cy5], the “probe-positive events (AL-positive / NT-positive background)” value in assay [1] is on record as “significantly higher AL-positive events”.

Take fluorescein-4-butanol [NT-FITC]: the “probe-positive events, probe versus its isotype negative control” value is on record as “higher count of events” in assay [2] (MGUS patient plasma, FIG. 4); “higher count of events” in assay [2] (Multiple Myeloma patient plasma, FIG. 8); “higher count of events” in assay [2] (plasma of another MGUS patient, FIG. 6). Besides, in assay [2] (healthy volunteer plasma, FIG. 2), the probe-positive events result was “significantly higher”. Besides, in assay [1], the “probe-positive events (AL-positive / NT-positive background)” value is given as “minimal”.

As to FITC alendronate [AL-FITC], the “probe-positive events (AL-positive / NT-positive background)” value in assay [1] is recorded as “significantly higher AL-positive events”.

These data come from patent US9846167B2 (priority 2013, dated 2017).
